The assay has as its target human adenosine A2b receptor (Homo sapiens (Human), UniProt P29275). The assay is described as follows: Cellular in vitro reporter gene test for A2b receptor activity (CHO-K1, CRE-luciferase, NECA stimulation). Type of assay: cell-based. To be noted: recombinant CHO-K1 cell line, CRE-luciferase reporter, antagonism of EC50 concentration of NECA; in some cases means of several determinations, rounded to two significant figures; read-out: A2b receptor IC50. The essentials: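 CHO-K1 cells with CRE-driven luciferase; antagonists co-incubated with NECA at its EC50, determined in a pre-experiment on each test day. Luciferase read by luminescence 3 h after NECA addition.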
Background: A reporter such as luciferase makes a cellular process visible.

SMILES strings stand for the structures.

Chain of human adenosine A2b receptor (P29275 whole entry): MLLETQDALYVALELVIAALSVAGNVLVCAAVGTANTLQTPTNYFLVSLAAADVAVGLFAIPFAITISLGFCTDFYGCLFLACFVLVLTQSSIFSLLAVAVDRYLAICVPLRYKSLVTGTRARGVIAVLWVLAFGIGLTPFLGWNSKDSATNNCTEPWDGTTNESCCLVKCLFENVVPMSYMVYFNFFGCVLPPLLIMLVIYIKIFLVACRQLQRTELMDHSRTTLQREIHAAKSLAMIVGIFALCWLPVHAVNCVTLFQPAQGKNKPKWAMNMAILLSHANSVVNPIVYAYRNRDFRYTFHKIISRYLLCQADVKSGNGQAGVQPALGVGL

By IC50 is commonly meant the concentration at which inhibition is half-maximal. Consider `COCCn1c(=O)n(CC(C)C)c(=O)c2c(C)c(CN3CCNC3=O)sc21` [Example 89, 3-Isobutyl-1-(2-methoxyethyl)-5-methyl-6-[(2-oxoimidazolidin-1-yl)methyl]thieno[2,3-d]pyrimidine-2,4(1H,3H)-dione], for which the IC50 was determined as 8.7 nM.
As to `Cc1c(CN2CCNC2=O)sc2c1c(=O)n(CC(C)C)c(=O)n2C` [Example 91, 3-Isobutyl-1,5-dimethyl-6-[(2-oxoimidazolidin-1-yl)methyl]thieno[2,3-d]pyrimidine-2,4(1H,3H)-dione], the 50% inhibitory concentration (IC50) stood at 11 nM.
In the case of `COCCn1c(=O)n(CC2CC2)c(=O)c2c(C)c(CN3CCNC3=O)sc21` [Example 92] it was 9.7 nM; in that of `Cc1c(CN2CCNC2=O)sc2c1c(=O)n(CC(F)(F)F)c(=O)n2CCCF` [Example 93, 1-(3-Fluoropropyl)-5-methyl-6-[(2-oxoimidazolidin-1-yl)methyl]-3-(2,2,2-trifluoroethyl)thieno[2,3-d]pyrimidine-2,4(1H,3H)-dione], 11 nM; in that of `COCCn1c(=O)n(CC(F)(F)F)c(=O)c2c(C)c(CN3CCNC3=O)sc21` [Example 94, 1-(2-Methoxyethyl)-5-methyl-6-[(2-oxoimidazolidin-1-yl)methyl]-3-(2,2,2-trifluoroethyl)thieno[2,3-d]pyrimidine-2,4(1H,3H)-dione], 7.7 nM.
Next, `Cc1c(CN2CCNC2=O)sc2c1c(=O)n(CC(F)F)c(=O)n2CCCF` [Example 95, 3-(2,2-Difluoroethyl)-1-(3-fluoropropyl)-5-methyl-6-[(2-oxoimidazolidin-1-yl)methyl]thieno[2,3-d]pyrimidine-2,4(1H,3H)-dione]: 11 nM; `COCCn1c(=O)n(CC(F)F)c(=O)c2c(C)c(CN3CCNC3=O)sc21` [Example 96, 3-(2,2-Difluoroethyl)-1-(2-methoxyethyl)-5-methyl-6-[(2-oxoimidazolidin-1-yl)methyl]thieno[2,3-d]pyrimidine-2,4(1H,3H)-dione]: 9.4 nM; `COCCn1c(=O)n(CCF)c(=O)c2c(C)c(CN3CCNC3=O)sc21` [Example 97, 3-(2-Fluoroethyl)-1-(2-methoxyethyl)-5-methyl-6-[(2-oxoimidazolidin-1-yl)methyl]thieno[2,3-d]pyrimidine-2,4(1H,3H)-dione]: 18 nM.
In the case of `COCCn1c(=O)n(CCC(F)(F)F)c(=O)c2c(C)c(CN3CCNC3=O)sc21` [Example 98, 1-(2-Methoxyethyl)-5-methyl-6-[(2-oxoimidazolidin-1-yl)methyl]-3-(3,3,3-trifluoropropyl)thieno[2,3-d]pyrimidine-2,4(1H,3H)-dione] it was 130 nM.
Take `CCn1c(=O)c2c(C(F)F)c(CN3CCNC3=O)sc2n(CCC(F)(F)F)c1=O` [Example 100, 5-(Difluoromethyl)-3-ethyl-6-[(2-oxoimidazolidin-1-yl)methyl]-1-(3,3,3-trifluoropropyl)thieno[2,3-d]pyrimidine-2,4(1H,3H)-dione]: the half-inhibitory concentration (IC50) was determined as 6.8 nM.
With `CCn1c(=O)c2c(C(F)F)c(CN3CCNC3=O)sc2n(CCOC)c1=O` [Example 101, 5-(Difluoromethyl)-3-ethyl-1-(2-methoxyethyl)-6-[(2-oxoimidazolidin-1-yl)methyl]thieno[2,3-d]pyrimidine-2,4(1H,3H)-dione], the IC50 turned out to be 12 nM.
In the case of `CCn1c(=O)c2c(C)c(CN3CCN(C)C3=O)sc2n(CCC(F)(F)F)c1=O` [Example 103, 3-Ethyl-5-methyl-6-[(3-methyl-2-oxoimidazolidin-1-yl)methyl]-1-(3,3,3-trifluoropropyl)thieno[2,3-d]pyrimidine-2,4(1H,3H)-dione] it was 3.5 nM; in that of `CCn1c(=O)c2c(C)c(CN3CCN(C(C)=O)C3=O)sc2n(CCOC)c1=O` [Example 104, 6-[(3-Acetyl-2-oxoimidazolidin-1-yl)methyl]-3-ethyl-1-(2-methoxyethyl)-5-methylthieno[2,3-d]pyrimidine-2,4(1H,3H)-dione], 120 nM.

The values are drawn from patent US10428083B2, “Heterocyclylmethyl-thienouracile as antagonists of the adenosine-A2B-receptor” (BAYER PHARMA AKTIENGESELLSCHAFT, priority 2015, dated 2019).
